The test system of one experiment is BORIS. Briefly: ADP ribosylation of BORIS under olaparib. In kind it is cell-based. The following applies: PARP inhibitor incubation.
A further experiment concerns PARP2. The following applies: ref [33], [49]; cited from earlier work.
Another experiment concerns BORIS-N198-228 peptide. The experiment is described as follows: PARP1-catalyzed in vitro PARylation assay. As to conditions: recombinant PARP1, ssDNA, 37 °C 30 min, dot blot anti-ADPr. In kind it is biochemical. How it is done:
Peptides (1–4 μg) incubated with different samples were added to 50 μL PARP1 reaction buffer (50 mM Tris–HCl at pH 7.4, 2 mM MgCl2, 200 μM NAD^+), which contained 0.2 μg of recombinant PARP1 (Trevigen, 4668–100-01) and 2.5 μg of ssDNA (Sigma, D8899), and reaction was carried out at 37 °C for 30 min. Low molecular weight peptide and PARP1 protein in the reactions were separated by a 30 kDa cutoff centrifugal filter (Millipore, UFC803096). Then, SDS loading buffer was added to separate peptides or proteins and analyzed by dot blotting using an anti- ADP ribosylation (ADPr) antibody.
To further confirm ADP ribosylation at residues 198–228, the synthesized BORIS-N198-228 peptide was subjected to a PARP1-catalyzed in vitro PARylation assay. Single-strand DNA (ssDNA) was added to activate PARP1. The BORIS-N198-228 peptide was separated by centrifugal filtration, and its PARylation levels were examined by dot blotting using an anti-ADPr antibody. […] To determine the modification between residues 198–228, the BORIS-N198-228 peptide was pre-incubated with BTApep-TAT or His-TAT before processing for PARP1-catelyzed in vitro PARylation. […] Taken together, we provided evidence that ADP ribosylation of BORIS was responsible for the association with Ku70 and DNA repair. […]

Another experiment relates to HEK293 cells. Briefly: Proliferation of HEK293 cells. In kind it is cell-based. As to conditions: 25 µM (Fig. 2D); normal cells not expressing BORIS. How it is done:
(§1) H1299 cells (RRID: CVCL_0060) were cultured in RPMI 1640 medium supplemented with 10% FBS. HEK293 (RRID:CVCL_0045) and HeLa (RRID:CVCL_0030) cells were cultured in Dulbecco's modified Eagle’s medium (DMEM) supplemented with 10% FBS and placed in 37 ℃ and 5% CO2 incubators. Cells were seeded in 6-well plates at 1 × 10^5 cells/well or in 96-well plates at 2000 cells/well for experiments. Cell viability was measured by MTT assay.
(§2) Cells were plated and treated with BORIS-targeted peptide (BTApep-TAT) or negative control peptide (His-TAT) at concentrations of 10 µM, 25 µM, 50 µM and 100 µM for 3 days. Cell viability was measured by MTT assay. Cell apoptosis was measured by TUNEL assay (cat. # 40306ES20, Yeasen Biotech Co., Ltd) and Caspase-Glo 3/7 assay (G8090, Promega Corporation, an affiliate of Promega (Beijing) Biotech Co., Ltd.).

For another experiment, the system named is H1299 cells. Briefly: Proliferation of H1299 cells (MTT, cell counting). It is filed as cell-based. As to conditions: 25 µM (Fig. 2D). How it is done:
as §1, §2

A further experiment has as its target T1, BORIS-N1-258 (Homo sapiens, UniProt Q8NI51).
T1 construct: The N terminal section of BORIS corresponding to AA 1–258 (BORIS-N1-258); 6xHis (C); made in house
T1 sequence (Q8NI51 1-258): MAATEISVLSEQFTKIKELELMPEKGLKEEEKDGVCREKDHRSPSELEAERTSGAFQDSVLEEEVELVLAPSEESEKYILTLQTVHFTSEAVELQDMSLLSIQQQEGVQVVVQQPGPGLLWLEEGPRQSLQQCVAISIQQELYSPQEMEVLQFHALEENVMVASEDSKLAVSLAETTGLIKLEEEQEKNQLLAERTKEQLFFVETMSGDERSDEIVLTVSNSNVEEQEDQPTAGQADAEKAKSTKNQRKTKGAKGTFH
The experiment is described as follows: BLI, BORIS-N1-258 immobilized on SSA sensor, free peptide in solution. It is filed as binding. As to conditions: free peptide in PBS with 0.02% Tween 20. How it is done: Twelve tandemly connected His was synthesized and conjugated with biotin or FITC as a negative control peptide by China Peptides Co., Ltd. The peptides were stored in powder at -80 °C. The peptides were dissolved in phosphate-buffered saline and filtered through a 0.22 µm filter to remove bacteria before use. The interaction between peptides and BORIS-N1-258 was measured by Bio-layer interferometry (BLI) in the ForteBio OctetRed system. The measurement was carried out in 5 steps: initial baseline duration, loading duration, baseline duration, association duration, and dissociation duration. In loading duration, 10 nM biotinylated peptides or 1 µM BORIS-N1-258 protein were immobilized on streptavidin-coated biosensors (ForteBio). The immobilization typically reached a response level of 4 nm. Association and dissociation curves were obtained through the addition of a dilution series of BORIS-N1-258 or peptides in PBS with 0.02% Tween 20 for the indicated period of time using Octet acquisition software. The binding data were fitted using Octet analysis software.
The BORIS-N1-258 protein was conjugated with biotin and loaded onto an SSA sensor. The synthesized peptides were dissolved in PBS with 0.02% Tween 20.
On the technique in general: BLI is a label-free optical method that tracks binding on a fibre tip over time.

The target in experiment [1] is T2, BORIS N-terminal region AA 1-258 (BORIS-N_(1-258)), His-tagged, from bacteria (human, UniProt Q8NI51 1-258, biotin (conjugated for loading onto the SSA sensor; position not stated; not said of the protein used free in solution or coated on plates)).
T2 construct: Cloned in the backbone of plasmid pFN6K; also called BORIS antigen; not shown: His6, C-terminal, kept
T2 sequence (looked up): T1 sequence (Q8NI51 1-258)
Briefly: BLI; ForteBio OctetRed; biotin-conjugated BORIS-N_(1-258) loaded onto an SSA sensor (1 µM in loading), free peptide in solution in PBS with 0.02% Tween 20. As to conditions: both partners purified.

In experiment [2] the target is T2, BORIS N-terminal region AA 1-258 …. The experiment is described as follows: ELISA; plates coated overnight at 4 °C with purified His-tagged BORIS-N_(1-258) (carbonate buffer, pH 9.6); purified phage clones in serial dilutions, 2 h at RT; detection by HRP-conjugated anti-M13 antibody. As to conditions: both partners purified. For orientation: An ELISA detects its analyte on a solid surface through an enzyme-linked reagent.

Experiment [3] shares this target. The experiment is described as follows: BLI; ForteBio OctetRed; biotin-labeled peptide 9 loaded onto an SA sensor (10 nM in loading), dilution series of BORIS-N_(1-258) in PBS with 0.02% Tween 20. The following applies: both partners purified.
Experiment [4] concerns the target T3, BORIS-N_(1-258) expressed and purified from HEK293 cells (human, UniProt Q8NI51 1-258).
T3 construct: source: HEK293 cells, expressed and purified
T3 sequence (looked up): T1 sequence (Q8NI51 1-258)
Described as above. As to conditions: both partners purified.

Where no end group is shown, it is not given here.

Data on 9 molecules can be found in article PMC9344678, “BTApep-TAT peptide inhibits ADP-ribosylation of BORIS to induce DNA damage in cancer” (Molecular Cancer, 2022).

As to `O=C(c1cc(Cc2n[nH]c(=O)c3ccccc23)ccc1F)N1CCN(C(=O)C2CC2)CC1` [Olaparib, olaparib], the “effect on ADP ribosylation of BORIS” value in the experiment with BORIS is reported as “did not attenuate ADP ribosylation of BORIS”. For the same molecule, the “inhibition of PARP2” value in the experiment on PARP2 is “inhibits”.
Turning to “BORIS-N198-228 peptide: synthesized peptide of BORIS residues 198–228 (EQLFFVETMSGDERSDEIVLTVSNSNVEEQE; UniProt Q8NI51 198-228, looked up, fragment)”, the “PARylation of the peptide itself” value with BORIS-N198-228 peptide is “accumulated in proportion to its abundance”.
On to “BTApep: BORIS-targeted peptide lacking the TAT penetrating peptide (VHWDFRQWWQPS)”, for which, in the experiment on HEK293 cells, the “suppression of proliferation of HEK293 cells” value is on record as “did not inhibit cell proliferation”. Further, the “suppression of proliferation of H1299 cells” value in the experiment on H1299 cells is “did not inhibit cell proliferation”.
In general, Kd refers to the constant that tells how readily two partners part at equilibrium. Consider DWSSWVYRDPQT [Peptide 2], for which the dissociation constant Kd at BORIS-N1-258 (bacterial BORIS-N1-258 on SSA sensor, read-out: binding affinity (Kd)) was found to be 315 µM.
For RFDHWVWQSQPW [Scrambled peptide 9], the “affinity in BLI” value on BORIS-N1-258 (result in words, BORIS-N1-258 on SSA sensor) was “did not have any measurable affinity”.

B1: Peptide 2 (peptide)
peptide: DWSSWVYRDPQT
notes: 12-mer selected from the Ph.D.-12 phage display peptide library; source: synthetic peptide (China Peptides Co., Ltd.)
B1 gave a Kd in experiment [1] of 314 µM.

B2: Phage clone 9 (peptide 9 displayed on phage) (peptide)
chain: VHWDFRQWWQPSGGGS
notes: 4 amino acid spacer that links the 12-mer to the N-terminus of a phage coat protein; Whole phage particle; source: purified phage clone from the Ph.D.-12 Phage Display Peptide Library (New England Biolabs); not shown: phage coat protein (Ph.D.-12 library), C-terminal, kept
With B2, the binding result in experiment [2] is recorded as “binds”.

B3: Peptide 9 labeled with biotin (peptide)
peptide: VHWDFRQWWQPS
modifications: also: biotin (position not given here)
notes: 12-mer selected from the Ph.D.-12 phage display peptide library; also called BTApep-biotin; biotinylated peptide 9; source: synthetic peptide (China Peptides Co., Ltd.)
As for B3, the dissociation constant (Kd) in [3] was determined as 0.0053 µM; in experiment [4] it was 0.00637 µM.

B4: Peptide 9 (synthesized, free in solution) (peptide)
peptide: VHWDFRQWWQPS
notes: 12-mer selected from the Ph.D.-12 phage display peptide library; The methods say that the peptides were synthesized and conjugated with biotin or FITC; also called peptide from phage clone 9; BTApep; source: synthetic peptide (China Peptides Co., Ltd.)
For the molecule B4, the Kd in experiment [1] was determined as 86.4 µM.
